Laboratory results as given in PubChem BioAssay (NCI).
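Interpolation was linear, between the two tested concentrations surrounding the appropriate level; five concentrations were tested over 48 hours in 96-well plates. GI50 = concentration required for 50% inhibition of growth. TGI denotes the concentration required for complete inhibition of growth.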

Columns and labels:
Assay in all cases: DTP human tumour cell line panel, 48 h
DU-145 prostate = tested on: DU-145 prostate
HOP-62 NSCLC = tested on: HOP-62 NSCLC
HT29 colon = tested on: HT29 colon
MCF7 breast = tested on: MCF7 breast
NCI-H226 lung = tested on: NCI-H226 lung
NCI-H460 lung = tested on: NCI-H460 lung
RXF 393 renal = tested on: RXF 393 renal
SF-268 CNS = tested on: SF-268 CNS
SR leukemia = tested on: SR leukemia
SW-620 colon = tested on: SW-620 colon

| Compound | TGI (DU-145 prostate) | TGI (HOP-62 NSCLC) [µM] | TGI (HT29 colon) | TGI (MCF7 breast) | TGI (NCI-H226 lung) | TGI (NCI-H460 lung) | TGI (RXF 393 renal) | TGI (SF-268 CNS) | TGI (SR leukemia) | GI50 (DU-145 prostate) | GI50 (HT29 colon) | GI50 (MCF7 breast) | GI50 (NCI-H226 lung) | GI50 (NCI-H460 lung) | GI50 (RXF 393 renal) | GI50 (SF-268 CNS) | GI50 (SR leukemia) | GI50 (SW-620 colon) | TGI (SW-620 colon) | GI50 (HOP-62 NSCLC) [µM] |
| --- | --- | --- | --- | --- | --- | --- | --- | --- | --- | --- | --- | --- | --- | --- | --- | --- | --- | --- | --- | --- |
| O=C1CC(C(=O)O)Cc2c(Br)ccc(O)c21 (centres undefined) | > 100 µM | > 100 | > 100 µM | > 100 µM | > 100 µM | > 100 µM | > 100 µM | > 100 µM | > 100 µM |  |  |  |  |  |  |  |  |  |  |  |
| COc1ccc(N=N/C(=N\NC(=O)c2cc(Br)ccc2O)c2ccc(N(CCC#N)CCC#N)cc2OC)cc1 | > 150 µg/mL |  | 118 µg/mL | > 150 µg/mL | 88.1 µg/mL | 109 µg/mL | > 150 µg/mL | > 150 µg/mL | > 150 µg/mL | 82 µg/mL | 40.9 µg/mL | 58.7 µg/mL | 24.2 µg/mL | 33.5 µg/mL | 50.2 µg/mL | 30.1 µg/mL | 62.8 µg/mL | > 150 µg/mL | > 150 µg/mL |  |
| COc1cc(-c2cc(-c3cccs3)c(C#N)c(N3CCOCC3)n2)cc(OC)c1OC | > 100 µM | > 100 | > 100 µM | > 100 µM | > 100 µM | > 28.5 µM | > 62.8 µM | > 100 µM | 8.11 µM | 13.7 µM | 3.16 µM | 6.68 µM | 20.5 µM | 3.06 µM | 3.47 µM | > 67.6 µM | 1.93 µM | 1.95 µM | 4.62 µM | > 58.7 |
| CC(=O)OC1CC2C(C)(C)CCC[C@]2(C)C2=C1C(O)=C(C(C)C)C(=O)C2=O (some centres undefined) | 2.28 µM | 4.47 |  | 3.75 µM | 2.12 µM | 1.69 µM | 1.02 µM | 10.1 µM | 2.11 µM | 0.867 µM |  | 1.1 µM | 0.589 µM | 0.354 µM | 0.254 µM | 0.902 µM | 0.39 µM | 0.911 µM | 2.92 µM | 2.13 |
| O=C(Nc1ccn(C2CC(I)C(COC(c3ccccc3)(c3ccccc3)c3ccccc3)O2)c(=O)n1)c1ccccc1 (centres undefined) | 21.5 µM | 21.2 | 21.5 µM | > 31.6 µM | 12.8 µM | 14.1 µM | 13.2 µM | 17.9 µM | 2.15 µM |  |  |  |  |  |  |  |  |  | 21.5 µM |  |
| COc1cc(N2CCN(C(C)C)CC2)ccc1Nc1nc(Nc2ccc(F)cc2C(=O)NCC(O)CO)c2cc[nH]c2n1 (centres undefined) | > 25 µM | > 25 | > 25 µM | > 25 µM | 19.9 µM | 19.4 µM | > 25 µM | > 25 µM | > 14 µM | 3.73 µM | 1.25 µM | 0.276 µM | 5.04 µM | 6.05 µM | 11.4 µM | 6.89 µM | 1.13 µM | 2.05 µM | > 25 µM | 4.09 |
| Cc1ccc(/C=C(/C#N)n2nnc3ncccc32)cc1 | 13.7 µM | 12.9 | 11.5 µM | 18.1 µM | 28 µM | 7.76 µM | 6.54 µM | 15.1 µM | 26.8 µM | 3.01 µM | 2.08 µM | 2.37 µM | 4.46 µM | 2.69 µM | 1.54 µM | 3.08 µM | 0.765 µM | 1.2 µM | 12 µM | 3.17 |
| Cc1cc2c(C(=O)NCC#N)cccc2n1-c1nc2c(c(NCc3ccccc3)n1)CCCC2 | 2.48 µM |  | 1.05 µM | 8.17 µM | 0.748 µM | 0.686 µM | 0.541 µM | 1.35 µM | 10.3 µM | 0.384 µM | 0.303 µM | 0.25 µM | 0.293 µM | 0.261 µM | 0.225 µM | 0.34 µM | 0.257 µM | 0.355 µM | 1.29 µM |  |
| COC1=CC(c2ccc[nH]2)=N/C1=C\c1[nH]c(C)c(C(=O)Oc2ccccc2)c1C | > 100 µM | 3.86 |  | 1.49 µM | 1.96 µM | 1.4 µM | 1.78 µM |  | 1.11 µM | 0.295 µM |  | 0.272 µM | 0.438 µM | 0.077 µM | 0.267 µM |  | 0.2 µM |  |  | 0.71 |
| COc1ccc(C2=NN(C=O)C(c3ccc(OS(=O)(=O)c4ccc(C)cc4)c(OC)c3)C2)cc1 (centres undefined) | > 100 µM | 74 |  | > 100 µM | > 100 µM | > 100 µM | 46.8 µM | > 100 µM | > 100 µM | 74.9 µM |  | 3.7 µM | 8.81 µM | 8.86 µM | 3.81 µM | 17.2 µM | 3.02 µM | 5.31 µM | > 100 µM | 9.47 |
| CCC(C)C(=O)O[C@H]1C(=O)O[C@@H]2C[C@H]3C(C)=CC(=O)[C@@H](O)[C@]3(C)[C@H]3[C@@H](O)[C@H](O)[C@@]4(C)OC[C@]32[C@@H]14 (some centres undefined) | < 0.0164 µM |  | 0.0272 µM | < 0.01 µM | < 0.0259 µM | < 0.0185 µM | < 0.0345 µM | 0.454 µM | < 0.0204 µM |  |  |  |  |  |  |  |  |  | 0.28 µM |  |
